Assay results reported in patent US20100130612A1, “COMPOSITION CONTAINING CHITOSAN FOR SUSTAINED DRUG RELEASE” (THE JORDANIAN PHARMACEUTICAL MANUFACTURING CO., priority 2005, published 2010).

Assay: Solubility of acidic drugs in acidic media when combined with chitosan polymer solution
Format: physicochemical
Details: pH<5.0; combined with a respective chitosan polymer solution

| solubility in acidic media (in words) | Structure (SMILES) |
| --- | --- |
| soluble in acidic media | O=C(O)Cc1ccccc1Nc1c(Cl)cccc1Cl [diclofenac sodium] |
| soluble in acidic media | CC(C)Cc1ccc(C(C)C(=O)O)cc1.[Na] (centres unmarked) [ibuprofen sodium] |
